Here are results for 20 molecules from US20170044208A1, “SELECTIVE GLUCOCORTICOID RECEPTOR LIGANDS” (The University of Manchester, priority 2013, published 2017).

Read-outs that look alike come from different tables or passages of the source.

For one assay, the system named is NFkB. The experiment in a line: Transrepression assay (NFκB-LUC reporter in HeLa cells, TNF stimulated). It is filed as cell-based. To be noted: for Emax / IC50: Homo sapiens, HeLa; for Emax: 16 h, read-out: TR Max %; for TR %: maximal NFkB repression compared to Dexamethasone. The procedure:
HeLa cells were seeded at 80×10^4 cells/dish in 100 mm dishes. Cells were transfected the next day with NFκB-LUC reporter (5 μg) and pGL4-hRLuc (0.1 μg), in 0.25 mL of Opti-MEM I using FuGENE HD (15 μL). After 24 hours, cells were trypsinized and seeded in to 24-well plates at a density of 8-10×10^4 cells/mL. Following overnight incubation, cells were starved for a further 24 hours in DMEM.
On the day of the experiment, compounds were added to cells one hour prior to the addition of […] (0.5 ng/mL). After a further 16 hours, cells were washed twice with ice-cold PBS, then lysed with 100 μL of 1×PLB.
(§1) Firefly and Renilla luciferase activity was measured using the Dual Luciferase Reporter system following the manufacturer's protocol.
(§2) IC50 and EC50 values were calculated by using GraphPad Prism 5.0. Briefly, luminescence values for luciferase were normalised using the Renilla luminescence values. The normalised values were input into GraphPad Prism 5.0. Non-linear regression analysis was carried out using the “log(concentration) vs. response” equation of the software, with a Hill slope coefficient fixed at 1.
(§3) IC50 and EC50 values are mean values in nM of all IC50/EC50 values for the compound. Max % values are mean values of the Max% activity.

Assay [1] addresses T1, Glucocorticoid Receptor (GR) (Homo sapiens, UniProt P04150).
T1 construct: Cells were transfected the next day with MMTV-Luc (5 μg) and pGL4-hRLuc (0.1 μg); endogenous in cells; host or cells: HeLa
T1 sequence (P04150 1-777): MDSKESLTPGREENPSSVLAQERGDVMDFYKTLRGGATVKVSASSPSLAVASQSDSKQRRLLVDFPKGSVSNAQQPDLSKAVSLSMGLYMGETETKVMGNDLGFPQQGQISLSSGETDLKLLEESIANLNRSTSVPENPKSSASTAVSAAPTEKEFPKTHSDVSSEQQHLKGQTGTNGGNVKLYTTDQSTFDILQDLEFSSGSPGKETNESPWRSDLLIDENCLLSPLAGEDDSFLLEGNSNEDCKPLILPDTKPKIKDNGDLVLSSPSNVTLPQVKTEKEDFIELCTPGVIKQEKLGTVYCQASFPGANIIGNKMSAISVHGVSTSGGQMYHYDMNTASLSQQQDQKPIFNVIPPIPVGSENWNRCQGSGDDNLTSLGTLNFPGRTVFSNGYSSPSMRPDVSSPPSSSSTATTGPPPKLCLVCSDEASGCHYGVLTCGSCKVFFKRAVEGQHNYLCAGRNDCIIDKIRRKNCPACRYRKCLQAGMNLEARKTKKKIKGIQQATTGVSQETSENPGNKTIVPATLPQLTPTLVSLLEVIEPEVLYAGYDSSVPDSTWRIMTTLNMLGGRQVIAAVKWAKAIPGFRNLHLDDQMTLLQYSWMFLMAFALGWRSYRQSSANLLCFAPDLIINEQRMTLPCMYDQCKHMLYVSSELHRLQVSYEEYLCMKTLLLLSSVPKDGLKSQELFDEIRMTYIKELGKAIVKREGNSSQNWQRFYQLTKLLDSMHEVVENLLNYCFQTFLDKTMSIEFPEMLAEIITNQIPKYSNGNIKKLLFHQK
Description: Transactivation assay (MMTV-Luc reporter in HeLa cells). It is filed as cell-based. To be noted: for Emax / EC50: HeLa; for Emax: 16 h, read-out: TA Max %; for EC50: concentration for half-maximal transactivation, MMTV-Luc, 16 hours, mean, read-out: TA EC50; for TA %: comparison table, against maximal activation seen with dexamethasone. Here is the method:
HeLa cells were seeded at 80×10^4 cells/dish in 100 mm dishes. Cells were transfected the next day with MMTV-Luc (5 μg) and pGL4-hRLuc (0.1 μg), in 250 μL of Opti-MEM I using FuGENE HD (15 μL). After 24 hours, cells were trypsinized and seeded into 96-well plates at a density of 8-10×10^4 cells/mL.
Following overnight incubation to allow attachment, cells were treated with the required concentration of compounds, then further incubated for 16 hours. Media was aspirated and cells lysed in 40 μL of 1×PLB.
as §1, §2, §3

[2] abbreviates: concentration for half-maximal repression of NFkB, TNF 0.5 ng/mL, 16 hours, mean, read-out: TR IC50.
The mark [3] stands for this setting: comparison table, half-maximal repression of NFkB, multiple experiments, read-out: IC50.

As a reminder, the IC50 is the concentration that inhibits the measured activity by half. The EC50 is the concentration giving half of the maximal effect. For the molecule `C[C@@H]1C[C@H]2[C@@H]3CCC4=CC(=O)C=C[C@]4(C)[C@@]3(F)[C@@H](O)C[C@]2(C)[C@@]1(O)C(=O)NCCCOc1ccc(C(=O)O)cc1` [Compound 19], the Emax in the assay on NFkB worked out at 33.3%. In addition, the IC50 in the assay with NFkB (setting [2]) came to 1450 nM. Further, in assay [1], the Emax was determined as 0.84% and the 50% effective concentration (EC50) was determined as 406000 nM.
For `C[C@@H]1C[C@H]2[C@@H]3CCC4=CC(=O)C=C[C@]4(C)[C@@]3(F)[C@@H](O)C[C@]2(C)[C@@]1(O)c1csc(NCc2ccccc2)n1` [Compound 25] the same measures were 79%, 29.1 nM, 1.92% and 3930 nM.
For the molecule `COc1ccc(OCCCCNC(=O)[C@@]2(O)[C@H](C)C[C@H]3[C@@H]4CCC5=CC(=O)C=C[C@]5(C)[C@@]4(F)[C@@H](O)C[C@@]32C)cc1` [Compound 18], in the assay with NFkB, the Emax stood at 82.1%. In the assay with NFkB (setting [3]), the IC50 turned out to be 5.96 nM. The IC50 in the assay with NFkB (setting [2]) is 6.83 nM. Also, the TR % in the assay on NFkB (comparison table) is recorded as 84%. Also, in assay [1], the Emax was determined as 26.3%, the TA % was 26% and the half-maximal effective concentration (EC50) came to 669 nM.
For `C[C@@H]1C[C@H]2[C@@H]3CCC4=CC(=O)C=C[C@]4(C)[C@@]3(F)[C@@H](O)C[C@]2(C)[C@@]1(O)c1csc(NC(=O)c2ccccc2F)n1` [Compound 28], the Emax in the assay with NFkB is 36%. In the assay with NFkB (setting [2]), the IC50 was 120 nM. Further, in assay [1], the Emax was found to be 0% and the EC50 is 29400 nM.
With `Cc1ccc(C(=O)Nc2nc([C@@]3(O)[C@H](C)C[C@H]4[C@@H]5CCC6=CC(=O)C=C[C@]6(C)[C@@]5(F)[C@@H](O)C[C@@]43C)cs2)cc1` [Compound 45], the Emax in the assay with NFkB came to 42.3%. For the same molecule, the 50% inhibitory concentration (IC50) with NFkB (setting [2]) came to 20.2 nM. In assay [1], the Emax worked out at 5.74% and the EC50 is 8480 nM.
In the case of `COc1ccc(CCCNC(=O)[C@@]2(O)[C@H](C)C[C@H]3[C@@H]4CCC5=CC(=O)C=C[C@]5(C)[C@@]4(F)[C@@H](O)C[C@@]32C)cc1OC` [Compound 13], the Emax is 87.6% with NFkB and 30% in assay [1]. Besides, the IC50 in the assay with NFkB (setting [2]) was 10.8 nM. Moreover, in assay [1], the EC50 was 189 nM.
For `C[C@@H]1C[C@H]2[C@@H]3CCC4=CC(=O)C=C[C@]4(C)[C@@]3(F)[C@@H](O)C[C@]2(C)[C@@]1(O)C(=O)NCCCOc1ccc(C(F)(F)F)cc1` [Compound 9] the same measures were 80.5%, 15.1%, 25 nM and 1110 nM.
In the same order, the values of `C[C@@H]1C[C@H]2[C@@H]3CCC4=CC(=O)C=C[C@]4(C)[C@@]3(F)[C@@H](O)C[C@]2(C)[C@@]1(O)C(=O)NCCCc1ccccn1` [Compound 2] are 52.4%, 18.3%, 23.5 nM and 1180 nM.
As to `C[C@@H]1C[C@H]2[C@@H]3CCC4=CC(=O)C=C[C@]4(C)[C@@]3(F)[C@@H](O)C[C@]2(C)[C@@]1(O)c1csc(NC(=O)c2ccncc2)n1` [Compound 31], the Emax with NFkB amounted to 37.5%; in assay [1], 0%. Also, the IC50 in the assay with NFkB (setting [2]) stood at 11.2 nM.
For `C[C@@H]1C[C@H]2[C@@H]3CCC4=CC(=O)C=C[C@]4(C)[C@@]3(F)[C@@H](O)C[C@]2(C)[C@@]1(O)C(=O)NCCCc1ccc(F)cc1` [Compound 1], the Emax with NFkB came to 90.8%. The IC50 in the assay on NFkB (setting [2]) turned out to be 8.41 nM. Also, in assay [1], the Emax turned out to be 21.3% and the concentration giving a half-maximal response (EC50) was determined as 868 nM.
For `C[C@@H]1C[C@H]2[C@@H]3CCC4=CC(=O)C=C[C@]4(C)[C@@]3(F)[C@@H](O)C[C@]2(C)[C@@]1(O)c1csc(NC(=O)c2ccc3ncsc3c2)n1` [Compound 39] the same measures were 19%, 8.34 nM, 0.96% and 1160 nM.
For `COc1cccc(OCCCNC(=O)[C@@]2(O)[C@H](C)C[C@H]3[C@@H]4CCC5=CC(=O)C=C[C@]5(C)[C@@]4(F)[C@@H](O)C[C@@]32C)c1` [Compound 15] the same measures were 79.7%, 3.53 nM, 20.8% and 1230 nM.
In the same order, the values of `C[C@@H]1C[C@H]2[C@@H]3CCC4=CC(=O)C=C[C@]4(C)[C@@]3(F)[C@@H](O)C[C@]2(C)[C@@]1(O)C(=O)NCCOc1ccc(F)cc1` [Compound 5] are 104%, 8.13 nM, 27.2% and 321 nM.
`C[C@@H]1C[C@H]2[C@@H]3CCC4=CC(=O)C=C[C@]4(C)[C@@]3(F)[C@@H](O)C[C@]2(C)[C@@]1(O)C(=O)CO` [Dex, dexamethasone, reference compound]: in the assay on NFkB (setting [3]), the IC50 turned out to be 2.86 nM. In addition, in the assay on NFkB (comparison table), the TR % is reported as 100%. In assay [1], this molecule yielded a TA % of 100%.
As for `C[C@@H]1C[C@H]2[C@@H]3CCC4=CC(=O)C=C[C@]4(C)[C@@]3(F)[C@@H](O)C[C@]2(C)[C@@]1(O)c1csc(NC(=O)c2cccc(F)c2)n1` [Compound 26], the Emax in the assay with NFkB is 44.1%. The IC50 with NFkB (setting [2]) turned out to be 8.22 nM. Also, in assay [1], the Emax was found to be 3.9% and the concentration giving a half-maximal response (EC50) was found to be 1530 nM.
Turning to `C[C@@H]1C[C@H]2[C@@H]3CCC4=CC(=O)C=C[C@]4(C)[C@@]3(F)[C@@H](O)C[C@]2(C)[C@@]1(O)c1csc(NC(=O)c2ccc(F)cc2)n1` [Compound 23], the Emax in the assay on NFkB came out at 52.1%. Also, the IC50 in the assay with NFkB (setting [3]) was determined as 35.8 nM. Besides, the half-maximal inhibitory concentration (IC50) in the assay on NFkB (setting [2]) came to 35.8 nM. In addition, the TR % in the assay with NFkB (comparison table) was found to be 52%. In assay [1], the Emax came out at 5.67%, the TA % is 6% and the EC50 is 1400 nM.
Take `COC(=O)c1ccc(OCCCNC(=O)[C@@]2(O)[C@H](C)C[C@H]3[C@@H]4CCC5=CC(=O)C=C[C@]5(C)[C@@]4(F)[C@@H](O)C[C@@]32C)cc1` [Compound 17]: the Emax with NFkB came out at 82.3%. Moreover, in the assay with NFkB (setting [3]), the IC50 came out at 1.19 nM. The IC50 with NFkB (setting [2]) turned out to be 1.19 nM. This molecule also came in with a TR % in the assay on NFkB (comparison table) of 87%. Moreover, in assay [1], the Emax turned out to be 39.1%, the TA % was 39% and the EC50 amounted to 832 nM.
In the case of `C[C@@H]1C[C@H]2[C@@H]3CCC4=CC(=O)C=C[C@]4(C)[C@@]3(F)[C@@H](O)C[C@]2(C)[C@@]1(O)c1csc(NC(=O)c2cnco2)n1` [Compound 41], in the assay on NFkB, the Emax was 26%. Moreover, the IC50 in the assay on NFkB (setting [2]) came out at 41.8 nM. For the same molecule, in assay [1], the Emax was 1.27% and the EC50 stood at 10300 nM.
For `C[C@@H]1C[C@H]2[C@@H]3CCC4=CC(=O)C=C[C@]4(C)[C@@]3(F)[C@@H](O)C[C@]2(C)[C@@]1(O)c1csc(NC(=O)c2cncs2)n1` [Compound 35] the same measures were 35.9%, 44.8 nM, 0.23% and 4180 nM.
Regarding `C[C@@H]1C[C@H]2[C@@H]3CCC4=CC(=O)C=C[C@]4(C)[C@@]3(F)[C@@H](O)C[C@]2(C)[C@@]1(O)C(=O)NCCOc1ccccn1` [Compound 8], the Emax in the assay with NFkB was 95%. For the same molecule, in the assay on NFkB (setting [2]), the concentration for half-maximal inhibition (IC50) turned out to be 5.69 nM. In assay [1], the Emax turned out to be 49.7% and the concentration for a half-maximal effect (EC50) was found to be 248 nM.
